Activity calls are given as the source filed them. No cut-off for these calls is given here.
Legend:
Pseudomonas aeruginosa [1] = assay: Antibacterial activity against wild-type Pseudomonas aeruginosa PAO1 assessed as bacterial growth inhibition by CLSI based broth-microdilution method; assay type: functional
Pseudomonas aeruginosa [2] = assay: Antibiofilm activity against wild-type Pseudomonas aeruginosa PAO1 assessed as inhibition rate at 10 uM incubated for 24 hrs by crystal violet staining based assay relative to control; assay type: functional
[3] = Anti-virulence effect in African green monkey Vero cells infected with Pseudomonas aeruginosa assessed as cell survival at 20 uM incubated for 24 hrs by MTT assay (reference value: 37.7 %); assay type: functional; settings: Chlorocebus sabaeus, read-out: Activity
Pseudomonas aeruginosa [4] = assay: Effect on rhlA expression in Pseudomonas aeruginosa PAO1 harboring rhlA-gfp at 1.25 to 20 uM measured for 12 hrs by fluorescence based assay; assay type: functional; settings: dose 1.25-20 µM
Pseudomonas aeruginosa [5] = assay: Antibiofilm activity against wild-type Pseudomonas aeruginosa PAO1 incubated for 24 hrs by crystal violet staining based assay; assay type: functional, organism-based
Pseudomonas aeruginosa [6] = assay: Anti-virulence effect in Pseudomonas aeruginosa PAO1 assessed as decrease in pyocyanin level incubated for 48 hrs by absorbance based assay; assay type: functional, organism-based; settings: dose 1.25-20 µM
Pseudomonas aeruginosa [7] = assay: Antibiofilm activity against wild-type Pseudomonas aeruginosa PAO1 at 2.5 uM incubated for 24 hrs by crystal violet staining based assay relative to control; assay type: functional
[8] = Inhibition of quorum sensing system in Pseudomonas aeruginosa PAO1 harboring pqsA-gfp assessed as decrease in pqsA expression measured for 12 hrs by fluorescence based assay; settings: dose 1.25-20 µM
Pseudomonas aeruginosa [9] = assay: Synergistic activity against Pseudomonas aeruginosa PAO1 assessed as reduction in ciprofloxacin MIC […] at 20 uM relative to control; assay type: functional; design: scale not given: the % may be the effect or the level left
Pseudomonas aeruginosa [10] = assay: Anti-virulence effect in Pseudomonas aeruginosa PAO1 assessed as decrease in elastase level incubated for 24 hrs by fluorescence based assay; assay type: functional, organism-based; settings: dose 1.25-20 µM
[11] = Cytotoxicity against African green monkey Vero cells assessed as cell viability at 3.125 to 50 uM incubated for 24 hrs by MTT assay; assay type: toxicity, cell-based; settings: chlorocebus sabaeus, dose 3.125-50 µM
Vero = assay: Anti-virulence effect in African green monkey Vero cells infected with Pseudomonas aeruginosa assessed as increase in cell survival incubated for 24 hrs by MTT assay; assay type: functional, cell-based; settings: Chlorocebus sabaeus, dose <= 20.0 µM
[12] = Inhibition of quorum sensing system in Pseudomonas aeruginosa PAO1 harboring lasB-gfp assessed as decrease in lasB expression measured for 12 hrs by fluorescence based assay; settings: dose 1.25-20 µM
Pseudomonas aeruginosa [13] = assay: Antibiofilm activity against wild-type Pseudomonas aeruginosa PAO1 at 20 uM incubated for 24 hrs by confocal laser scanning microscopy; assay type: functional, organism-based
Pseudomonas aeruginosa [14] = assay: Inhibition of swarming motility in Pseudomonas aeruginosa PAO1 incubated for 16 hrs; assay type: functional, organism-based; settings: dose 1.25-20 µM
Pseudomonas aeruginosa [15] = assay: Effect on rhamnolipid level in Pseudomonas aeruginosa PAO1 at 1.25 to 20 uM incubated for 24 hrs by absorbance based assay; assay type: functional, organism-based; settings: dose 1.25-20 µM

SMILES | MIC (Pseudomonas aeruginosa [1]) [µM] | inhibition at 10 µM (Pseudomonas aeruginosa [2]) [%] | also measured
Cn1cc(O)c(=O)cc1CNC(=O)CSc1nc2ccccc2[nH]1 | > 128 |  | 
Cc1cc(=O)c(O)c(CNC(=O)CSc2nc3cc([N+](=O)[O-])ccc3s2)n1C | > 128 | 10.1 | 
Cc1cc(=O)c(O)c(CNC(=O)CSc2nncs2)n1C | > 128 | 16.9 | 
Cc1cc(=O)c(O)c(CNC(=O)CSc2nc3cc(F)ccc3s2)n1C | > 128 | 5 | 
Cc1cc(=O)c(O)c(CNC(=O)CSc2nc3c(C(C)(C)C)cccc3o2)n1C | > 128 | 19.4 | 
Cc1cc(C)nc(SCC(=O)NCc2c(O)c(=O)cc(C)n2C)n1 | > 128 | 22.6 | 
Cc1cc(=O)c(O)c(CNC(=O)CSc2nc3cc(Cl)ccc3[nH]2)n1C | > 128 |  | 
Cc1cc(=O)c(O)c(CNC(=O)CSc2nc3cc([N+](=O)[O-])ccc3[nH]2)n1C | > 128 | 51.5 | viability at 20 µM [3]: 71.5%; Activity (Pseudomonas aeruginosa [4]): inactive; IC50 (Pseudomonas aeruginosa [5]; PAO1, 24 h): 10.6 µM; Activity (Pseudomonas aeruginosa [5]; dose 1.25-20 µM): Dose-Dependent Effect; Activity (Pseudomonas aeruginosa [6]): Dose-Dependent Effect; inhibition at 2.5 µM (Pseudomonas aeruginosa [7]): > 30%; inhibition [8]: Dose-Dependent Effect; Activity (Pseudomonas aeruginosa [9]): ~50%; Activity (Pseudomonas aeruginosa [10]): Dose-Dependent Effect; Activity [11]: Non-Toxic; Activity (Vero): Dose-Dependent Effect; inhibition [12]: Dose-Dependent Effect; Activity (Pseudomonas aeruginosa [13]): Active; inhibition (Pseudomonas aeruginosa [14]): Dose-Dependent Effect; Activity (Pseudomonas aeruginosa [15]): inactive
Cc1cc(=O)c(O)c(CNC(=O)CSc2nc3ccccc3o2)n1C | > 128 | 26.2 | 
COc1ccc2oc(SCC(=O)NCc3c(O)c(=O)cc(C)n3C)nc2c1 | > 128 | 19.6 | 
CCOc1ccc2[nH]c(SCC(=O)NCc3c(O)c(=O)cc(C)n3C)nc2c1 | > 128 | -17.5 | 
Cc1cc(=O)c(O)c(CNC(=O)CSc2nc3cc(OC(F)F)ccc3[nH]2)n1C | > 128 | 17.6 | 
COc1ccc2[nH]c(SCC(=O)NCc3c(O)c(=O)cc(C)n3C)nc2c1 | > 128 | 16.3 | 
Cc1cc(=O)c(O)c(CNC(=O)CSc2nc3cc(Cl)ccc3o2)n1C | > 128 | 41.7 | 
Cc1cc(=O)c(O)c(CNC(=O)CSc2nc3c([N+](=O)[O-])cccc3o2)n1C | > 128 | 30.6 | 
Cc1cc(=O)c(O)c(CNC(=O)CSc2nc3ccc([N+](=O)[O-])cc3s2)n1C | > 128 | 45.5 | 
COc1ccc2sc(SCC(=O)NCc3c(O)c(=O)cc(C)n3C)nc2c1 | > 128 | 7.27 | 
Cc1cc(=O)c(O)c(CNC(=O)CSc2ccc([N+](=O)[O-])cc2)n1C | > 128 | 31.9 | 
Cc1nnc(SCC(=O)NCc2c(O)c(=O)cc(C)n2C)s1 | > 128 | -10.2 | 
COc1ccc2nc(SCC(=O)NCc3c(O)c(=O)cc(C)n3C)sc2c1 | > 128 | -22.4 | 
Cc1ccc2nc(SCC(=O)NCc3c(O)c(=O)cc(C)n3C)sc2c1 | > 128 | 31.2 | 
Cc1cc(=O)c(O)c(CNC(=O)CSc2ccncc2)n1C | > 128 |  | 
Cc1cc(=O)c(O)c(CNC(=O)CSc2nc3ccccc3s2)n1C | > 128 | 22.1 | 
Cc1cc(=O)c(O)c(CNC(=O)CSc2nc3ccc(F)cc3o2)n1C | > 128 | 25.4 | 
Cc1cc(=O)c(O)c(CNC(=O)CSc2nc3cc(C(F)(F)F)ccc3[nH]2)n1C | > 128 |  | 
Cc1cc(=O)c(O)c(CNC(=O)CSc2nc3cc(C(F)(F)F)ccc3o2)n1C | > 128 | 39.5 | 
Cc1cc(=O)c(O)c(CNC(=O)CSc2ncc[nH]2)n1C | > 128 | 46.1 | 

The next lines start with results.

MIC (Pseudomonas aeruginosa [1]) [µM] | SMILES | inhibition at 10 µM (Pseudomonas aeruginosa [2]) [%] | also measured
> 128 | Cc1cc(=O)c(O)c(CNC(=O)CSc2nc3c(F)cccc3o2)n1C | 27.6 | 
> 128 | Cc1cccc2sc(SCC(=O)NCc3c(O)c(=O)cc(C)n3C)nc12 | 20.8 | 
> 128 | Cc1cc(=O)c(O)c(CNC(=O)CSc2nccs2)n1C | 46.4 | 
> 128 | Cc1cc(=O)c(O)c(CNC(=O)CSc2nc3c(C(C)(C)C)cccc3[nH]2)n1C | 14.5 | 
> 128 | Cc1cccc2oc(SCC(=O)NCc3c(O)c(=O)cc(C)n3C)nc12 |  | 
> 128 | Cn1cc(O)c(=O)cc1CNC(=O)CSc1nc2ccccc2s1 | -5.24 | 
> 128 | Cc1cc(=O)c(O)c(CNC(=O)CSc2ncccn2)n1C | 7.18 | 
> 128 | Cc1cc(=O)c(O)c(CNC(=O)CSc2nc3ccc(F)cc3s2)n1C | 40.4 | 
> 128 | Cc1cc(=O)c(O)c(CNC(=O)CSc2ccccn2)n1C |  | 
> 128 | Cc1cc(=O)c(O)c(CNC(=O)CSc2nc3ccccc3[nH]2)n1C | 44.6 | 
> 128 | Cc1ccc2oc(SCC(=O)NCc3c(O)c(=O)cc(C)n3C)nc2c1 | 45.8 | 
> 128 | Cn1cc(O)c(=O)cc1CNC(=O)CSc1nc2cc([N+](=O)[O-])ccc2[nH]1 | -15.2 | 
> 128 | Cc1cc(=O)c(O)c(CNC(=O)CSc2nc3cc(C#N)ccc3[nH]2)n1C | 41.3 | 
> 128 | Cc1ccc2[nH]c(SCC(=O)NCc3cc(=O)c(O)cn3C)nc2c1 | 3.29 | 
> 128 | Cn1cc(O)c(=O)cc1CNC(=O)CSc1nc2ccc([N+](=O)[O-])cc2s1 | 29.1 | 
> 128 | Cc1ccc2[nH]c(SCC(=O)NCc3c(O)c(=O)cc(C)n3C)nc2c1 | 7.4 | 
> 128 | Cc1cc(=O)c(O)c(CNC(=O)CSc2nccn2C)n1C | 30 | 
> 128 | Cc1cc(=O)c(O)c(CNC(=O)CSc2nc3cc(Cl)ccc3s2)n1C | 5.12 | 
> 128 | Cc1cc(=O)c(O)c(CNC(=O)CSc2nc3cc(F)ccc3[nH]2)n1C | 34.7 | 
> 128 | COc1ccc(SCC(=O)NCc2c(O)c(=O)cc(C)n2C)cc1 | -13.6 | 

— ChEMBL document CHEMBL5625198, “Design, synthesis and biological evaluation of novel 3-hydroxypyridin-4(1H)-ones based hybrids as Pseudomonas aeruginosa biofilm inhibitors” (Eur J Med Chem, 2023)
